The values that follow come from US6911475B1, “Use of nicotine or its derivatives in a drug for treating neurological disease, in particular Parkinson's disease” (Assistance Publique-Hopitaux de Paris, priority 1999, dated 2005).

Assay [1] has as its system Parkinson's disease. As for the experimental part: (§1) The physical symptoms studied were: tremor, axial rigidity, gait and speech. The neuro-psychological symptoms were memory and sexual activity.
(§2) Over a period of six months, nicotine patches were administered to the patient, firstly using increasing doses over the first three months to reach a dose of 102 mg per day and then by combining two types of patch, namely a patch in the form of a slow release patch (patch P) and rapid release patches (patch R). Each patch P contained 21 mg of nicotine and each patch R contained 15 mg of nicotine.

Assay [2] deals with Parkinson's disease. As for the experimental part:
Clinical evaluation of the effect of the drug of the invention and of the treatment method was carried out using conventional UPDRS I, II and III neurological tests. These tests enabled both neuro-psychological and physical effects to be measured.
The UPDRS I test measures, on a scale of 0 to 4, mentation, behaviour and mood of the patient, taking into account the criteria of intellectual impairment, thought disorder, depression and motivation/initiative.
The UPDRS II test measures a series of sensory or motor physical tests, also on a scale of 0 to 4.
The UPDRS III test measures the motor activity of the patient, again on a scale of 0 to 4.
Zero indicates a normal state and four indicates maximum perturbation.
Clinical evaluation was based on the L-DOPA test and was carried out as follows:
The UPDRS test used is described below.
It consisted of halting the L-DOPA therapy to a zero dose 12 to 24 hours before the test.
The next day, every half hour, the condition and the clinical changes in the patient was measured during stoppage (“off” period, no L-DOPA) then the clinical changes during resumption (“on” period with L-DOPA). The time was measured using a chronometer.
This test was carried out with UPDRS measurements as described above: • motor UPDRS (Unified Parkinson's Disease Rating Scale); • UPDRS I (mental state of patient); • UPDRS II (daily life, on-off); ADL (activities of daily living); • Self-evaluation test (test carried out by the patient, verification and confirmation by physician of fluctuations in on-off periods during the day).
This is another data set of the same source.

The subject of assay [3] is Parkinson's disease. How it is done: as §1, §2
Overall, the daily dose was 21 mg the first month and stabilized at 102 mg from the fourth month, divided into 42 mg under slow release and 60 mg under rapid release.
Concomitantly, L-DOPA was administered in a decreasing dose with time; in contrast, the bromocriptine dose was unchanged and remained at 30 mg per day over the entire treatment, as shown in Table II below.
The source holds these as a separate data set.

[4] abbreviates: Re-administer nicotine at 102 mg/kg/d, after a period without nicotine.

Like-named read-outs stand apart in the source and are kept apart here.

Regarding `CN1CCCC1c1cccnc1` (centres unmarked) [nicotine], in assay [1] (after four months of treatment, problems present for two years), the “Sexual problems and urinary dysfunction” value is recorded as “completely re-established functions”. In assay [1] (under nicotine treatment), the Depressive episodes entry is reported as “reduced” and the Memory disorders entry is “reduced”. The “Neuro-psychological manifestations of Parkinson's disease” value in assay [1] (within six months from commencing treatment) is “disappeared completely”. Besides, the “UPDRS I (mental state)” value in assay [2] (With nicotine treatment (6 months later), day 0 without nicotine: 10) amounted to 0. Further, in assay [2] (With nicotine treatment (6 months later), off = no L-DOPA, day 0 without nicotine: 22), the “UPDRS II off (daily activity, ADL)” value was found to be 10. For the same compound, in assay [2] (With nicotine treatment (6 months later), on = with L-DOPA, day 0 without nicotine: 13), the “UPDRS II on (daily activity, ADL)” value worked out at 6. In assay [2] (no L-DOPA, 30 mg bromocriptine, over nicotine treatment, except in the seventh month (nicotine interrupted)), the “UPDRS score for the "off" periods (FIG. 2)” value was “reduction in the score”. Besides, the “UPDRS measurements in the "on" periods (FIG. 2)” value in assay [2] (with L-DOPA (250 mg first test, 187.50 mg after six months), 30 mg bromocriptine, over nicotine treatment) was “constant decrease”. Also, in assay [3] (setting [4]), the Axial rigidity is 0, the Gait worked out at 0, the Speech is recorded as 0 and the Tremor was 1. In addition, in assay [3] (With nicotine treatment), the Axial rigidity is on record as 0, the Gait was 0 and the Speech was 0. The Tremor in assay [3] (With nicotine treatment, patient, concomitant L-DOPA and 30 mg/day bromocriptine, 0 = normal, 4 = maximum perturbation) was 1. For the same compound, in assay [3] (nicotine treatment, Table III), the “Axial rigidity (in words)” value is “completely abolished”; the “Gait and speech (in words)” value is reported as “normalised”. In addition, the “Symptomatic effect of stopping administration of nicotine” value in assay [3] (stopping nicotine in the eighth month) is recorded as “no symptomatic effect”.
